The record followed here is patent US11987575B2, “Tricyclic compounds as BCR-ABL inhibitors” (ASCENTAGE PHARMA (SUZHOU) CO., LTD., priority 2019, dated 2024).

For one experiment, the target named is BaF3(WT) (Homo sapiens, UniProt P00519). Kind of experiment: WST (CCK-8) anti-proliferative assay, BaF3 WT. The following applies: read-out: BaF3(WT); BaF3 WT cells, 72 h treatment, CCK-8 readout OD 450 nm.
The next experiment addresses BaF3 (T315I mutant) (Homo sapiens, UniProt P00519, T315I, cells depend on it). Kind of experiment: WST (CCK-8) anti-proliferative assay, BaF3 T315I mutant. The following applies: read-out: BaF3 (T315I mutant), 72 h treatment, CCK-8 readout OD 450 nm.

Regarding `CC(=O)NC1CCC2c3cc(C(=O)Nc4ccc(OC(F)(F)Cl)cc4)cc(-c4ccn[nH]4)c3N(C3CC3)C12` (stereo not drawn) [Compound 62], the GI50 at BaF3(WT) worked out at 21 nM; on BaF3 (T315I mutant), 41 nM.
In the same order, the values of `COC(C)(C)CN1c2c(-c3ccn[nH]3)cc(C(=O)Nc3ccc(OC(F)(F)Cl)cc3)cc2C2CCC(NC(C)=O)C21` (stereo not drawn) [Compound 63] are 41 nM and 52 nM.
Taken in the same sequence, the figures for `CC(=O)NC1CCC2c3cc(C(=O)Nc4ccc(OC(F)(F)Cl)cc4)cc(-c4cncc(F)c4)c3N(C3CCCC3)C12` (stereo not drawn) [Compound 64] were 8 nM and 43 nM.
As for `CCC(CC)N1c2c(-c3cncc(F)c3)cc(C(=O)Nc3ccc(OC(F)(F)Cl)cc3)cc2C2CCC(NC(C)=O)C21` (stereo not drawn) [Compound 65], the results for the GI50 at BaF3(WT) and at BaF3 (T315I mutant) were 9 nM and 119 nM, respectively.
In the same order, the values of `CC(=O)N[C@@H]1CC[C@H]2c3cc(C(=O)Nc4ccc(OC(F)(F)Cl)cc4)cc(-c4cccc(C#N)c4)c3N(C(C)C)[C@@H]12` [Compound 66-A] are 3 nM and 29 nM.
Taken in the same sequence, the figures for `CC(=O)N[C@@H]1CC[C@H]2c3cc(C(=O)Nc4ccc(OC(F)(F)Cl)cc4)cc(-c4cc(F)cnc4C#N)c3N(C(C)C)[C@@H]12` [Compound 67-A] were 6 nM and 59 nM.
